The values that follow come from patent US20100120715A1, “BETA-LACTAMASE INHIBITORS” (priority 2007, published 2010).

One assay has as its target T1, Class C P99 AmpC (Enterobacter cloacae, UniProt P05364).
T1 construct: made in house; host or cells: E. coli BL21(DE3)
It counts as biochemical. To be noted: purified enzyme; nitrocefin 100 μM, PBS pH 7.0; read-out: P99 AmpC IC50 Range. As for the experimental part: (§1) Isolation of β-lactamases. For all examples, purified beta-lactamase enzymes were used to measure a compounds' ability to inhibit the Class A ESBL CTXM-15, the Class C P99 AmpC and the Class A carbapenemase KPC-2. […] The enzyme preparations are described herein.
(§2) For the isolation and purification of SHV-5, p99 AmpC, KPC-2 and CTX-M15 β-lactamases, E. coli BL21(DE3) bacterial cells carrying expression plasmids (expressed as native untagged proteins) for the individual β-lactamases were grown in 1 L of Superbroth (Teknova Inc. Hollister, Calif.) supplemented with 100 μg/ml kanamycin and 1×5052 (0.5% glycerol, 0.05% glucose and 0.2% α-lactose) at 35° C. for 18-20 hours. Cells were harvested by centrifugation (4,000×g, 4° C., 20 min), and resuspended in 50 ml of 10 mM HEPES pH 7.5 ( 1/20 of the initial volume). The cells were lysed by sonication (5 pulses of 45 seconds) at 45 W on ice. The lysates were clarified by centrifugation at 10,000×g for 40 minutes at 4° C. Samples were diluted 5-fold in 50 mM sodium acetate pH 5.0, stored overnight at 4° C., after which they were centrifuged at 10,000×g for 30 minutes to clarify, and filtered through 0.45 μm filters. The samples were loaded onto a 5 ml Capto S sepharose cation exchange column (GE Healthcare) pre-equilibrated with 50 mM sodium acetate pH 5.0. The column was washed with 5 column volumes of 50 mM sodium acetate pH 5.0 to wash out unbound protein and a linear gradient of NaCl (0 to 500 mM) was used to elute the protein (over 16 CV) from the column. Fractions were assayed for β-lactamase activity using Centa (Calbiochem, Gibbstown, N.J.) as a reporter β-lactamase substrate for activity in the isolated fractions. Active fractions were pooled, concentrated and further purified by gel filtration chromatography on a Superdex 75 prep grade gel filtration column (GE Healthcare, Piscataway, N.J.) pre-equilibrated in 50 mM Hepes pH 7.5, 150 mM NaCl. Active fractions were pooled concentrated, quantitated by BCA protein determination (Thermo Scientific, Rockford, Ill.), and frozen at −80° C. in 20% glycerol until use.
(§3) β-lactamase Inhibition. To determine the level of inhibition of β-lactamaseenzymes, compounds were diluted in PBS at pH 7.0 to yield concentrations between 100 and 0.005 μM in microtiter plates. An equal volume of diluted enzyme stock was added, and the plates were incubated at 37° C. for 10 min. Nitrocefin solution was then dispensed as substrate into each well at a final concentration of 100 μM, and the plates were immediately read with the kinetic program at 486 nm for 10 min on the SPECTRAMAX® Plus^384 (high-throughput microplate spectrophotometer; Molecular Devices Corp., Sunnyvale, Calif.). Maximum rates of metabolism were then compared to those in control wells (without inhibitors), and percentages of enzyme inhibition were calculated for each concentration of inhibitor. The concentration of inhibitor needed to reduce the initial rate of hydrolysis of substrate by 50% (IC50) was calculated as the residual activity of β-lactamase at 486 nm using the SoftMax Pro 5.0 software (Molecular Devices Corp.).

The target of another assay is T2, Class A ESBL SHV-5 (Klebsiella pneumoniae, UniProt P0A3M1).
T2 construct: made in house; host or cells: E. coli BL21(DE3) for purified enzyme; E. coli cells containing SHV-5 for extracts
Format: biochemical, E. coli. The conditions noted are these: cellular extracts of E. coli containing SHV-5 (Examples 2-30); nitrocefin 100 μM, PBS pH 7.0; read-out: SHV-5 IC50 Range. The method, then: as §1
For the preparation of SHV-5 extracts, E. coli cells containing SHV-5 were cultured overnight with shaking at a volume of 20 mL. They were further diluted 10-fold and grown to mid-log phase (OD at 600 nm, 0.5-0.8) in Mueller-Hinton II (MH-II) broth at 37° C. The cells were pelleted at 5000 g, washed and resuspended in 2 mL PBS pH 7.0. The β-lactamase was extracted by four cycles of freezing and thawing followed by centrifugation. β-lactamase activity in the extract was measured with the chromogenic cephalosporin nitrocefin. The amount of protein in each β-lactamase preparation was determined by the bicinchoninic acid (BCA) assay.
as §2, §3

In assay [1] the test system is K. pneumoniae expressing the Class A ESBL CTX-M-15. In words: microbe, parasite or virus in culture. It counts as cell-based. The conditions noted are these: in the presence of fixed 8 μg/mL Ceftazidime. The source says: To determine the ability of test compounds to potentiate the inhibition of the growth of bacterial strains producing beta-lactamase enzymes, classic cell based screening assays were employed. Four bacteria strains producing beta-lactamase enzymes were used: K. pneumoniae expressing the Class A Extended Spectrum Beta-Lactamase (ESBL) CTX-M-15, E. coli expressing the Class A ESBL SHV-5, E. cloacae expressing the Class C P99+, and K. pneumoniae expressing the Class A carbapenemase KPC-2. In order to evaluate the ability of test compounds to inhibit beta-lactamase activity, Applicants used a modification of the broth microdilution assay. The assay was conducted in Cation Adjusted Mueller Hinton Broth (CAMHB, BD # 212322, BD Diagnostic Systems, Sparks, Md.). Bacteria strains were grown for 3-5 hours in CAMBH broth. All four strains were grown in presence of 50 μg/mL ampicillin to ensure resistance is maintained. In the meantime, test compounds were diluted in DMSO to a 0.1 mg/mL stock. The compounds were added to a microtiter plate and were diluted in 2-fold serial dilutions in CAMHB in a final concentration range of 8 μg/mL to 0.015 μg/ml. […] […] Each of these compound plates are made in quadruplicate, one for each bacteria strain. In addition to the titration of test compounds the MICs of a panel of cephalosporins is also tested to ensure the strains are behaving consistently from test to test. Once the test compound and cephalosporin are added the plates can be inoculated. Inocula are conducted according to CLSI broth microdilution method. After inoculation the plates are incubated for 16-20 hours at 37° C. then the Minimal Inhibitory Concentration (MIC) of the test compound is determined visually.

Another assay concerns the target T3, Class A ESBL CTXM-15 (Escherichia coli, UniProt Q9EXV5).
T3 construct: made in house; host or cells: E. coli BL21(DE3)
In words: β-lactamase enzyme inhibition (nitrocefin hydrolysis), CTXM-15. It counts as biochemical. To be noted: purified enzyme; nitrocefin 100 μM, PBS pH 7.0; read-out: CTXM-15 IC50 Range. The method, then: as §1, §2, §3

The subject of assay [2] is K. pneumoniae expressing the Class A carbapenemase KPC-2. In words: microbe, parasite or virus in culture. The conditions noted are these: in the presence of fixed 8 μg/mL Ceftazidime. The text has this:
To determine the ability of test compounds to potentiate the inhibition of the growth of bacterial strains producing beta-lactamase enzymes, classic cell based screening assays were employed. Four bacteria strains producing beta-lactamase enzymes were used: K. pneumoniae expressing the Class A Extended Spectrum Beta-Lactamase (ESBL) CTX-M-15, E. coli expressing the Class A ESBL SHV-5, E. cloacae expressing the Class C P99+, and K. pneumoniae expressing the Class A carbapenemase KPC-2. In order to evaluate the ability of test compounds to inhibit beta-lactamase activity, Applicants used a modification of the broth microdilution assay. The assay was conducted in Cation Adjusted Mueller Hinton Broth (CAMHB, BD # 212322, BD Diagnostic Systems, Sparks, Md.). Bacteria strains were grown for 3-5 hours in CAMBH broth. All four strains were grown in presence of 50 μg/mL ampicillin to ensure resistance is maintained. In the meantime, test compounds were diluted in DMSO to a 0.1 mg/mL stock. The compounds were added to a microtiter plate and were diluted in 2-fold serial dilutions in CAMHB in a final concentration range of 8 μg/mL to 0.015 μg/ml. An overlay of CAMHB containing a cephalosporin was added to the compounds at a final static concentration of 8 μg/ml. […] Each of these compound plates are made in quadruplicate, one for each bacteria strain. In addition to the titration of test compounds the MICs of a panel of cephalosporins is also tested to ensure the strains are behaving consistently from test to test. Once the test compound and cephalosporin are added the plates can be inoculated. Inocula are conducted according to CLSI broth microdilution method. After inoculation the plates are incubated for 16-20 hours at 37° C. then the Minimal Inhibitory Concentration (MIC) of the test compound is determined visually.

In assay [3] the target is T4, Class A carbapenemase KPC-2 (Klebsiella pneumoniae, UniProt Q9F663).
T4 construct: made in house; host or cells: E. coli BL21(DE3)
Nature of the assay: β-lactamase enzyme inhibition (nitrocefin hydrolysis), KPC-2. It counts as biochemical. The conditions noted are these: purified enzyme; nitrocefin 100 μM, PBS pH 7.0; read-out: KPC-2 IC50 Range. As for the experimental part: as §1, §2, §3

T2 sequence (P0A3M1 22-286): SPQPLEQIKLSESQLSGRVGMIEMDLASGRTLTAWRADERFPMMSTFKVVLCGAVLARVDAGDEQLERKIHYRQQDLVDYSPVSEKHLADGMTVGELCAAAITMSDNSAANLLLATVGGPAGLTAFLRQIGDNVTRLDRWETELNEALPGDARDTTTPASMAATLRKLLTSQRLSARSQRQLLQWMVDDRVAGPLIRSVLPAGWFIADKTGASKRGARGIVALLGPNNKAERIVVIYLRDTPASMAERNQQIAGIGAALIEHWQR
T1 sequence (P05364 21-381): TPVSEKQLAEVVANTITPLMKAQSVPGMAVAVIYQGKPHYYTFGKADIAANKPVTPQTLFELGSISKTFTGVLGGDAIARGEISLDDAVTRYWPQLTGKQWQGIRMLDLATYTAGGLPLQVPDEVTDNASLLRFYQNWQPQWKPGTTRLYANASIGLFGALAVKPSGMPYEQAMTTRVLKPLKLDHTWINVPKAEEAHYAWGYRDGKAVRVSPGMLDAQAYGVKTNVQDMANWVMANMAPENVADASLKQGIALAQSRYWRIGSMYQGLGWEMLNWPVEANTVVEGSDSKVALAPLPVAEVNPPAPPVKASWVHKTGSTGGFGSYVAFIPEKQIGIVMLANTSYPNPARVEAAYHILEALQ
T4 sequence (Q9F663 25-293 limits assumed): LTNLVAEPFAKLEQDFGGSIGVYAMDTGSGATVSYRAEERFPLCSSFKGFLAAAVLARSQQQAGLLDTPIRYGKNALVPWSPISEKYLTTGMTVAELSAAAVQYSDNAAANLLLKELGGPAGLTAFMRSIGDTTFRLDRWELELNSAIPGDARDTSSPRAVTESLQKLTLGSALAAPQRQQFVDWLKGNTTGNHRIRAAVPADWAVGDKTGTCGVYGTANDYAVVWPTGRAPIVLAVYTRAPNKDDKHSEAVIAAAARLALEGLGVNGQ
T3 sequence (Q9EXV5 entry or part of it): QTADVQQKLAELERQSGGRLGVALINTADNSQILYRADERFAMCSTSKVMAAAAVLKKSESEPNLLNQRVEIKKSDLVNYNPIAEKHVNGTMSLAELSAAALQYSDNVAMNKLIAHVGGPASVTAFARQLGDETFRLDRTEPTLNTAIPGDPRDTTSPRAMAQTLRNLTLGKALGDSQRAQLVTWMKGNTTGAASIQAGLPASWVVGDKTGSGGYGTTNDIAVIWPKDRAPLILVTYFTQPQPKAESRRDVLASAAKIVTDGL

`O=C(Cc1cccc(O)c1)N[C@@H](Cc1cccc(C(=O)O)c1O)B(O)O` [Example 3, (1R)-1-(3-hydroxy-phenyl)acetylamino-1-(3-carboxy-2-hydroxy)benzyl-methyl boronic acid]: the IC50 on Class C P99 AmpC, at Class A ESBL SHV-5 and on Class A ESBL CTXM-15 was less than 10 nM in each case. Besides, the “MIC of example compound, K. pneumoniae CTX-M-15 + 8 μg/mL CAZ” value (“MIC … K. pneumoniae CTX-M-15 + 8 μg/mL CAZ” for short) in assay [1] is recorded as “C (C represents an MIC of <1 μg/mL)”. The “MIC of example compound, K. pneumoniae KPC-2 + 8 μg/mL CAZ” value (“MIC … K. pneumoniae KPC-2 + 8 μg/mL CAZ” for short) in assay [2] is “C (C represents an MIC of <1 μg/mL)”.

Regarding `CC(=O)N[C@@H](Cc1cccc(C(=O)O)c1O)B(O)O` [Example 6, (1R)-1-(2-acetylamino)-2-(2-hydroxy-3-carboxyphenyl)ethyl-1-boronic acid], the values for the IC50 on Class C P99 AmpC, on Class A ESBL SHV-5 and at Class A ESBL CTXM-15 were 10 to 100 nM, 100 to 1000 nM and less than 10 nM, respectively. In addition, the “MIC … K. pneumoniae CTX-M-15 + 8 μg/mL CAZ” value in assay [1] was “C (C represents an MIC of <1 μg/mL)”. In addition, the “MIC … K. pneumoniae KPC-2 + 8 μg/mL CAZ” value in assay [2] is “C (C represents an MIC of <1 μg/mL)”.

Turning to `NC(=O)COc1cccc(CC(=O)N[C@@H](Cc2cccc(C(=O)O)c2O)B(O)O)c1` [Example 8, (1R)-1-[(3-carbamoylmethoxy)-phenyl]-acetylamino-(3-carboxy-2-hydroxy), benzyl-methylboronic acid], the IC50 on Class C P99 AmpC, at Class A ESBL SHV-5 and on Class A ESBL CTXM-15 was less than 10 nM each time. The “MIC … K. pneumoniae CTX-M-15 + 8 μg/mL CAZ” value in assay [1] is “C (C represents an MIC of <1 μg/mL)”. The “MIC … K. pneumoniae KPC-2 + 8 μg/mL CAZ” value in assay [2] is “C (C represents an MIC of <1 μg/mL)”.

Turning to `N[C@H](C(=O)N[C@@H](Cc1cccc(C(=O)O)c1O)B(O)O)c1ccccc1.O=CO` [Example 12, (1R,2′S)-1-(2-amino-2-phenylacetylamino)-2-(2-hydroxy-3-carboxyphenyl)ethyl-1-boronic acid formate salt], the values for the 50% inhibitory concentration (IC50) on Class C P99 AmpC, at Class A ESBL SHV-5 and on Class A ESBL CTXM-15 were 100 to 1000 nM, 100 to 1000 nM and 10 to 100 nM, respectively. Further, the “MIC … K. pneumoniae CTX-M-15 + 8 μg/mL CAZ” value in assay [1] is given as “C (C represents an MIC of <1 μg/mL)”. Further, the “MIC … K. pneumoniae KPC-2 + 8 μg/mL CAZ” value in assay [2] is recorded as “C (C represents an MIC of <1 μg/mL)”.

Turning to `O=C(Cc1cc(O)ccc1O)N[C@@H](Cc1cccc(C(=O)O)c1O)B(O)O` [Example 18, (1R)-1-(2-(2,5-dihydroxyphenyl)acetylamino)-2-(2-hydroxy-3-carboxyphenyl)ethyl-1-boronic acid], the half-maximal inhibitory concentration (IC50) (at Class C P99 AmpC; on Class A ESBL SHV-5; in assay [3]; at Class A ESBL CTXM-15) was less than 10 nM throughout. In addition, the “MIC … K. pneumoniae CTX-M-15 + 8 μg/mL CAZ” value in assay [1] is “C (C represents an MIC of <1 μg/mL)”.

On to `O=C(COCc1ccccc1)N[C@@H](Cc1cccc(C(=O)O)c1O)B(O)O` [Example 22, (1R)-1-(2-benzyloxyacetylamino)-2-(2-hydroxy-3-carboxyphenyl)ethyl-1-boronic acid], for which the IC50 – broadly, the concentration that inhibits the measured activity by half – is 10 to 100 nM on Class C P99 AmpC, less than 10 nM on Class A ESBL SHV-5, less than 10 nM in assay [3] and less than 10 nM at Class A ESBL CTXM-15. Moreover, in assay [1], the “MIC … K. pneumoniae CTX-M-15 + 8 μg/mL CAZ” value was “C (C represents an MIC of <1 μg/mL)”. For the same compound, in assay [2], the “MIC … K. pneumoniae KPC-2 + 8 μg/mL CAZ” value is on record as “C (C represents an MIC of <1 μg/mL)”.

Take `CCCCCCC(=O)N[C@@H](Cc1cccc(C(=O)O)c1O)B(O)O` [Example 24, (1R)-1-(heptanoylamino)-2-(2-hydroxy-3-carboxyphenyl)ethyl-1-boronic acid]: the IC50 is less than 10 nM on Class C P99 AmpC, less than 10 nM at Class A ESBL SHV-5, 10 to 100 nM in assay [3] and less than 10 nM at Class A ESBL CTXM-15. Besides, the “MIC … K. pneumoniae CTX-M-15 + 8 μg/mL CAZ” value in assay [1] is on record as “C (C represents an MIC of <1 μg/mL)”. For the same compound, the “MIC … K. pneumoniae KPC-2 + 8 μg/mL CAZ” value in assay [2] is “C (C represents an MIC of <1 μg/mL)”.

On to `CC(C)(C)CC(=O)N[C@@H](Cc1cccc(C(=O)O)c1O)B(O)O` [Example 25, (1R)-1-(3,3-Dimethyl-butyrylamino)-(3-carboxy-2-hydroxy)benzyl-methylboronic acid], for which the IC50 (at Class C P99 AmpC; on Class A ESBL SHV-5; in assay [3]; on Class A ESBL CTXM-15) was 10 to 100 nM each time. Also, in assay [1], the “MIC … K. pneumoniae CTX-M-15 + 8 μg/mL CAZ” value is on record as “C (C represents an MIC of <1 μg/mL)”. In addition, the “MIC … K. pneumoniae KPC-2 + 8 μg/mL CAZ” value in assay [2] is recorded as “C (C represents an MIC of <1 μg/mL)”.
